Measured values from US4182897A, “Amino- or guanidino-phenylpropionic acid derivatives” (Torii & Co., Ltd., priority 1977, dated 1980).
Structures can show the parent of a compound that is named as a salt. Where two headings read alike, the source gives them in different places.

Key:
Assay type in all cases: biochemical
[1] = biological target: T1, Trypsin (Bos taurus, UniProt P00760); experiment: Inhibitory effect on ester-hydrolyzing activity of trypsin (TAMe substrate); settings: for IC50 / inhibitory action on trypsin: in vitro; for IC50: tosylarginine methyl ester hydrolysis, read-out: ID50 (trypsin); for inhibition at 1000 µM: read-out: percent inhibition at 10^-3 M (trypsin)
T1 sequence (P00760 24-246): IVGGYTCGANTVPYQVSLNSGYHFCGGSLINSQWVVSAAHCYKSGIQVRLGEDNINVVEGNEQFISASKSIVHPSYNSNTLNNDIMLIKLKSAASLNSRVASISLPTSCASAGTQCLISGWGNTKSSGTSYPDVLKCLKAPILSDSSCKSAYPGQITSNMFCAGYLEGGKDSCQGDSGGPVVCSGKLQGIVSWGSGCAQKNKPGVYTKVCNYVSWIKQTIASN
Experimental: (A) Determination of Enzyme-inhibitory Activity: The enzyme-inhibitory activities in vitro of the compounds of this invention were measured by the following procedure according to the method of M. Muramatsu et al. [[…]. Makino, Y. Hayashi and S. Fujii: J. […] Then, 10 μmoles of the substrate, TAMe (tosylarginine methyl ester), was added, and incubation was performed at 37° C. for 30 minutes. After the incubation, 1.5 ml of 2 M alkaline hydroxylamine was added and thoroughly mixed, and allowed to stand at room temperature for 15 minutes.

[2] = biological target: Human Plasmin (Homo sapiens, UniProt P00747); experiment: Inhibitory effect on ester-hydrolyzing activity of human plasmin (TAMe substrate); settings: for inhibitory action on plasmin: in vitro; for inhibition at 1000 µM: read-out: percent inhibition at 10^-3 M (plasmin)
Sequence of Human Plasmin (P00747 581-810 limits assumed): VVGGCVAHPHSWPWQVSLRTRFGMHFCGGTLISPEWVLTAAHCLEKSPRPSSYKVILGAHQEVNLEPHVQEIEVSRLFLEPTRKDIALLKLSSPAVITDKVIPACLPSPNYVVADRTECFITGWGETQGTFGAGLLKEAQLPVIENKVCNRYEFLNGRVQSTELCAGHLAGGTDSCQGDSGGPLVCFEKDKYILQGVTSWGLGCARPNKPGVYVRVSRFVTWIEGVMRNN
Sequence of Human Plasmin (P00747 97-580 partner limits assumed): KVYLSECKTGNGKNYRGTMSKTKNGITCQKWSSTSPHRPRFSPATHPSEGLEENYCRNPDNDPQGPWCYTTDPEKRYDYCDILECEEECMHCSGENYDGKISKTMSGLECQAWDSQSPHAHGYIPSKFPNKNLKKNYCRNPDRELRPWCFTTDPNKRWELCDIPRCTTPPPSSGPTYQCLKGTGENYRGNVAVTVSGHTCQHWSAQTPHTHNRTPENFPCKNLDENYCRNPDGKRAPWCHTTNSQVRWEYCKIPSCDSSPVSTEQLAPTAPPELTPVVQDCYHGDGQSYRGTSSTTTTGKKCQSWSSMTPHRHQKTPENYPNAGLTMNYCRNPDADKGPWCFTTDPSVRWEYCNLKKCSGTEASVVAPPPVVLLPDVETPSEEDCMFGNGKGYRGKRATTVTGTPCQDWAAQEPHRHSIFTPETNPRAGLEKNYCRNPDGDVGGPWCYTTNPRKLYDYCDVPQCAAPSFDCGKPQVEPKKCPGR
Experimental: (A) Determination of Enzyme-inhibitory Activity: The enzyme-inhibitory activities in vitro of the compounds of this invention were measured by the following procedure according to the method of M. Muramatsu et al. [[…]. Makino, Y. Hayashi and S. Fujii: J. […] (2) Inhibitory Effect on Ester-hydrolyzing Activity of Human Plasmin It was measured by using 0.1 ml of plasmin (generated by activation of plasminogen with streptokinase) and TAMe as substrate following the method described in (1).

[3] = biological target: T2, Human Cl Esterase (Homo sapiens, UniProt P09871); experiment: Inhibitory effect on ester-hydrolyzing activity of human Cl esterase (ATEe substrate); settings: for inhibitory action on Cl esterase / IC50: in vitro; for inhibition at 1000 µM: read-out: percent inhibition at 10^-3 M (Cl esterase); for IC50: acetyltyrosine ethyl ester hydrolysis, read-out: ID50 (Cl esterase)
T2 sequence (P09871 438-688 limits assumed): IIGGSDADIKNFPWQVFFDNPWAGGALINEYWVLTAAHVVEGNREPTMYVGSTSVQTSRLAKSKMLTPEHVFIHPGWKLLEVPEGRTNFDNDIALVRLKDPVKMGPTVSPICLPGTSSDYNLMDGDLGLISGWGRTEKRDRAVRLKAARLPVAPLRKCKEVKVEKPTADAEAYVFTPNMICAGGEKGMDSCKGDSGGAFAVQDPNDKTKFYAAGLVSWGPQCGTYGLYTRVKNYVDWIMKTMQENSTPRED
T2 sequence (P09871 16-437 partner limits assumed): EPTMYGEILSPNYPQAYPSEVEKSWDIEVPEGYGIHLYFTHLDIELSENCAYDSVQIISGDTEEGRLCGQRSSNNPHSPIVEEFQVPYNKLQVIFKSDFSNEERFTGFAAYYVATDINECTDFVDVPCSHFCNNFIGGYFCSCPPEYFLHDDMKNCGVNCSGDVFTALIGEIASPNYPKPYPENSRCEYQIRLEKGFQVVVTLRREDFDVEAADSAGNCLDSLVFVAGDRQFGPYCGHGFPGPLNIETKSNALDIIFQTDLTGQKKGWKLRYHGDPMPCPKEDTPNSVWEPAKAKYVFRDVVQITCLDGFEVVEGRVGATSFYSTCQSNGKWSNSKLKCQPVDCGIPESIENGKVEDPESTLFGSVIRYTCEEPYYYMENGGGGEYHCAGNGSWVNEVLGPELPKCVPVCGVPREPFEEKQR
Experimental: It was measured by using 0.1 ml of Cl esterase, 0.1 ml of 0.02 M sodium phosphate buffer solution (pH 7.4) and 10 μmoles of ATEe (acetyltyrosine ethyl ester) as substrate following the method described in (1).

[4] = biological target: Human Plasma Kallikrein (Homo sapiens, UniProt P03952); experiment: Inhibitory effect on ester-hydrolyzing activity of human plasma kallikrein (TAMe substrate); settings: for inhibitory action on kallikrein: in vitro; for inhibition at 1000 µM: read-out: percent inhibition at 10^-3 M (kallikrein)
Sequence of Human Plasma Kallikrein (P03952 391-638 limits assumed): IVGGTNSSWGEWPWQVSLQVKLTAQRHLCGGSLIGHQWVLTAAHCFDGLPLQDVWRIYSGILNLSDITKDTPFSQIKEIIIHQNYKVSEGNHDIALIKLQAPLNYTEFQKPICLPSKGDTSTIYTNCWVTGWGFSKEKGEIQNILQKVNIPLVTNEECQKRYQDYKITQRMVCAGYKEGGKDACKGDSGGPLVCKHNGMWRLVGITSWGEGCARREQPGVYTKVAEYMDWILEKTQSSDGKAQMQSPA
Sequence of Human Plasma Kallikrein (P03952 20-390 partner limits assumed): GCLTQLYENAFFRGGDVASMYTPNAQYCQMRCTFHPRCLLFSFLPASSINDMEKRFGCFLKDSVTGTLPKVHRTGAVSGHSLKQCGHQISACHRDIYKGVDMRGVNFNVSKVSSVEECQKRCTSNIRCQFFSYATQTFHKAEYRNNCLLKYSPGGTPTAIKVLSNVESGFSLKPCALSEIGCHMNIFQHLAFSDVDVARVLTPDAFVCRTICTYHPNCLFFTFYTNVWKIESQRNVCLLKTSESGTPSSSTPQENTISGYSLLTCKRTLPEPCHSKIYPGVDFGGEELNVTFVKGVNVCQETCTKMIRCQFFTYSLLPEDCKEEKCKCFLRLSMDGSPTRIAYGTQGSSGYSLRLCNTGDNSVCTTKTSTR
Experimental: (A) Determination of Enzyme-inhibitory Activity: The enzyme-inhibitory activities in vitro of the compounds of this invention were measured by the following procedure according to the method of M. Muramatsu et al. [[…]. Makino, Y. Hayashi and S. Fujii: J.

[5] = biological target: Bovine Thrombin (Bos taurus, UniProt P00735); experiment: Inhibitory effect on ester-hydrolyzing activity of bovine thrombin (TAMe substrate); settings: for inhibition at 1000 µM: read-out: percent inhibition at 10^-3 M (thrombin); for inhibitory action on thrombin: in vitro
Experimental: (4) Inhibitory Effect on Ester-Hydrolyzing Activity of Bovine Thrombin
It was measured by using 0.4 ml of bovine thrombin […], 0.02 M sodium phosphate buffer solution (pH 7.4) and TAMe as substrate following the method described in (1).

| SMILES | IC50 [1] [µM] | inhibitory action on trypsin [1] | inhibition at 1000 µM [1] [%] | inhibitory action on plasmin [2] | inhibition at 1000 µM [2] [%] | inhibitory action on Cl esterase [3] | inhibition at 1000 µM [3] [%] | inhibitory action on kallikrein [4] | inhibition at 1000 µM [4] [%] | IC50 [5] [µM] | IC50 ([1]; 30 min) [µM] | inhibition at 1000 µM [5] [%] | IC50 [3] [µM] | inhibitory action on thrombin [5] |
| --- | --- | --- | --- | --- | --- | --- | --- | --- | --- | --- | --- | --- | --- | --- |
| CC(Cc1ccc(N)cc1)C(=O)Oc1ccc(Cl)cc1 (stereo not drawn) [Compound No. 2, p-Chlorophenyl α-methyl-β-(p-aminophenyl)-propionate hydrochloride] | 330 |  |  |  |  |  |  |  |  |  |  |  |  |  |
| Cl.Nc1ccc(CCC(=O)Oc2ccccc2)cc1 [Compound No. 3, Phenyl β-(p-aminophenyl)-propionate hydrochloride] |  | no inhibitory action | < 10 | no inhibitory action | < 10 | no inhibitory action | < 10 | no inhibitory action | < 10 | 290 |  |  |  |  |
| CCC(Cc1cccc(N)c1)C(=O)Oc1ccc(OC)cc1 (stereo not drawn) [Compound No. 4, p-Methoxyphenyl α-ethyl-β-(m-aminophenyl)-propionate hydrochloride] |  |  |  |  | < 10 |  | 14.8 |  | < 10 |  | 400 | < 10 |  |  |
| CC(Cc1cccc(NC(=N)N)c1)C(=O)Oc1ccc(Cl)cc1 (stereo not drawn) [Compound No. 44, p-Chlorophenyl α-methyl-β-(m-guanidinophenyl)-propionate carbonate] |  |  |  |  |  |  |  |  |  |  |  |  | 250 |  |
| Cc1ccc(OC(=O)C(C)Cc2ccc(NC(=N)N)cc2)cc1 (stereo not drawn) [Compound No. 45, p-Methylphenyl α-methyl-β-(p-guanidinophenyl)-propionate hydrochloride] |  |  | 21.4 |  | < 10 |  |  |  | < 10 |  |  | < 10 | 780 |  |
| CC(Cc1cccc(NC(=N)N)c1)C(=O)Oc1ccccc1.O=C(O)O (stereo not drawn) [Compound No. 46, Phenyl α-methyl-β-(m-guanidinophenyl)-propionate carbonate] |  | no inhibitory action | 12.2 | no inhibitory action | < 10 |  |  | no inhibitory action | 12.9 |  |  | < 10 | 310 | no inhibitory action |
| CCOC(=O)c1ccc(OC(=O)CCc2ccc(NC(=N)N)cc2)cc1.Cl [Compound No. 47, p-Ethoxycarbonylphenyl β-(p-guanidinophenyl)-propionate hydrochloride] | 78 |  |  | no inhibitory action | < 10 | no inhibitory action | < 10 | no inhibitory action | 36 |  |  | 12.3 |  | no inhibitory action |
| CC(Cc1cccc(N)c1)C(=O)Oc1ccc(Cl)cc1 (stereo not drawn) [compound 5, p-chlorophenyl α-methyl-β-(m-aminophenyl)-propionate] | 10 |  |  |  | < 10 |  | < 10 |  | < 10 |  |  | < 10 |  |  |
| CCOC(=O)c1ccc(OC(=O)C(CC)Cc2ccc(N)cc2)cc1 (stereo not drawn) [compound 36, p-ethoxycarbonylphenyl α-ethyl-β-(p-aminophenyl)-propionate] | 170 |  |  |  | < 10 |  | < 10 |  | 15.9 |  |  | 25.3 |  |  |
| CC(Cc1ccc(NC(=N)N)cc1)C(=O)Oc1ccc(Cl)cc1 (stereo not drawn) [compound 52, p-chlorophenyl α-methyl-β-(p-guanidinophenyl)-propionate] | 490 |  |  |  | 18.8 |  |  |  | 38.4 |  |  | < 10 | 56 |  |
| CCC(Cc1cccc(NC(=N)N)c1)C(=O)Oc1ccccc1 (stereo not drawn) [compound 65, phenyl α-ethyl-β-(m-guanidinophenyl)-propionate] |  |  | 35 |  | < 10 |  |  |  | 15.6 |  |  | 16.8 | 70 |  |
